Test results as given in publication PMC11340618 (iScience, 2024).
≈ marks a conversion by molar mass, not a printed value. Where “and” joins values, the source holds several entries; their conditions need not be identical. Equal values may be shown once. Read-outs that look alike come from different tables or passages of the source.

Experiments:
GSK3β = target: T1, GSK3β (Homo sapiens, UniProt P49841); experiment: in vitro inhibition of GSK3β, ADP-Glo Kinase assay (SignalChem); format: biochemical; settings: normalized to negative control
T1 construct: purchased SignalChem (Richmond, BC, Canada), contract assay service
Protocol: Samples of three GSK3 inhibitors (P-4423632, P-0717632, P-3817632) were sent to SignalChem (Richmond, BC, Canada) where a compound selectivity assay was performed and the IC50 values of the inhibitors were determined.
Figure S3: in vitro inhibition of GSK3β by selected inhibitors, related to Star Methods: Determination of IC50 of GSK3 inhibitors. GSK3β activity was measured using the ADP-GloTM Kinase assay and normalized to the negative control (100% kinase activity). Curve was fit using non-linear regression analysis calculated with GraphPad Prism software.
(also on this page, place not known: % Inhibition GSK3β % Inhibition GSK3β % Inhibition GSK3β IC50)

[1] = test system: intracellular M. tuberculosis H37Rv (WT); experiment: microbe, parasite or virus in culture; format: cell-based; settings: Mycobacterium tuberculosis, 72 h
[2] = test system: intracellular M. tuberculosis ΔptpA; format: cell-based, Mycobacterium tuberculosis
Mtb infection = test system: Mtb infection; set-up: method as in PMID 35095838; settings: GSK3α/β inhibition ref 56; cited from earlier work
[3] = test system: panel of bacteria, including Mtb; format: cell-based
[4] = test system: Campylobacter jejuni in Caco-2 cells; experiment: Caco-2 infection with C. jejuni, CFU; format: cell-based; settings: two-fold serial dilutions, 24h
Protocol: Isolated colonies from overnight culture grown on Muller -Hinton (MH) plates in microaerophilic conditions were inoculated into liquid MH media and grown overnight. Bacteria were pelleted by centrifugation and resuspended in DMEM media. The bacteria were then added at an MOI of 100-400 to Caco-2 cells in 24-well plates at 10^5 cells per well. After 2 h of incubation, infected cells were washed with fresh DMEM and incubated an additional 2 h with 100-200 μg/ml gentamycin followed by the addition of test compounds and incubation for 24 h. After incubation, cells were washed with fresh DMEM and lysed by osmotic shock with sterile […] and passed through a 27G needle with a syringe. The lysate was serially diluted and plated in MH agar using the pouring plate method. CFU were then counted after a 24 - 48 h incubation. To assess cell survival, a duplicate of the previous conditions was used to undergo MTT assay or cell count with the CX5 using DAPI staining. […]
intracellular bacteria. Related to Star Methods describing C. Jejuni and S. enterica infections. […] Percent inhibition was calculated by subtracting CFU values as a percentage of the untreated DMSO control (plotted at 0.1 µM) from 100%. […] Curve was fit using non-linear regression analysis of log (inhibitor) vs. response (variable slope) calculated with GraphPad Prism 10. […]

Mycobacterium smegmatis = format: cell-based; settings: up to 100 μg of P-4423632
[5] = test system: Mycobacterium tuberculosis H37Rv in broth; experiment: In-broth activity analysis (resazurin assay)
Mycobacterium abscessus = format: cell-based; settings: up to 100 μg of P-4423632
[6] = test system: Mycobacterium intracellulare; experiment: Disk assay, in vitro activity; format: cell-based
[7] = test system: Staphylococcus epidermidis; experiment: Disk assay, in vitro activity; format: cell-based
Salmonella typhimurium = experiment: Disk assay, in vitro activity; format: cell-based
M. avium avium = experiment: Disk assay, in vitro activity; format: cell-based
[8] = test system: Mycobacterium tuberculosis H37Rv in THP-1; experiment: Minimal inhibitory concentrations of P-4423632 against Mtb H37Rv in THP-1 (Table S3); format: cell-based
From the text: Table S3. Minimal inhibitory concentrations of P-4423632 against Mycobacterium tuberculosis H37Rv in cell lines and in broth, and inhibitory concentrations (toxicity level) to THP-1 cells. Related to Figure 2.

Bacillus subtilis = experiment: Disk assay, in vitro activity; format: cell-based
[9] = test system: GSK3α Y279 / GSK3β Y216 phosphorylation; experiment: Western blot of Y279 - Y216 phosphorylation status of GSK3α and GSK3β in THP-1 cells; format: cell-based, human
Enterococcus faecalis = experiment: Disk assay, in vitro activity; format: cell-based; settings: up to 25 μg of P-4423632
MRSA = experiment: Disk assay, in vitro activity; format: cell-based; settings: up to 25 μg of P-4423632
[10] = Cytotoxicity analysis (MTT assay); format: cell-based; settings: human, differentiated THP-1 cells, toxicity level to THP-1 cells
Protocol: The MTT assay was performed as described previously.[19] […] At the 69.5-hour time point, 25 μL of 3-(4,5-dimethylthiazol-2-yl)-2,5-diphenyltetrazolium bromide (MTT) solution were added to each well. […] The absorbance of each well was read at 570 nm and these values were used to calculate the percentage of viable cells.

[11] = test system: Salmonella enterica serovar Typhimurium in THP-1 cells; experiment: THP-1 infection with S. typhimurium, high content screening; format: cell-based; settings: MOI 10:1, 24h
Staphylococcus aureus = experiment: Disk assay, in vitro activity; format: cell-based
[12] = test system: intracellular Mtb in GSK3α KO / GSK3β KO THP-1 cells; format: cell-based, Mycobacterium tuberculosis; settings: 10 μM P-4423632, 72 h
THP-1 cells = experiment: Annexin V FITC apoptosis assay, flow cytometry; format: cell-based, human
Acinetobacter baumannii = experiment: Disk assay, in vitro activity; format: cell-based
Moraxella catarrhalis = experiment: Disk assay, in vitro activity; format: cell-based
Pseudomonas aeruginosa = experiment: Disk assay, in vitro activity; format: cell-based
[13] = test system: Mycobacterium tuberculosis H37Rv auxotroph, mc2 6206; format: cell-based
Mycobacterium bovis BCG = format: cell-based
[14] = test system: Mycobacterium tuberculosis H37Rv in hMDM; experiment: microbe, parasite or virus in culture; format: cell-based
Mycobacterium marinum = experiment: Disk assay, in vitro activity; format: cell-based; settings: up to 25 μg of P-4423632
[15] = test system: intracellular Mtb H37Rv in THP-1 cells; experiment: Dose dependent activity against intracellular Mtb, high content analysis of fluorescent Mtb (Fig 3E); format: cell-based, Mycobacterium tuberculosis
Escherichia coli = experiment: Disk assay, in vitro activity; format: cell-based

T1 sequence (P49841 whole entry): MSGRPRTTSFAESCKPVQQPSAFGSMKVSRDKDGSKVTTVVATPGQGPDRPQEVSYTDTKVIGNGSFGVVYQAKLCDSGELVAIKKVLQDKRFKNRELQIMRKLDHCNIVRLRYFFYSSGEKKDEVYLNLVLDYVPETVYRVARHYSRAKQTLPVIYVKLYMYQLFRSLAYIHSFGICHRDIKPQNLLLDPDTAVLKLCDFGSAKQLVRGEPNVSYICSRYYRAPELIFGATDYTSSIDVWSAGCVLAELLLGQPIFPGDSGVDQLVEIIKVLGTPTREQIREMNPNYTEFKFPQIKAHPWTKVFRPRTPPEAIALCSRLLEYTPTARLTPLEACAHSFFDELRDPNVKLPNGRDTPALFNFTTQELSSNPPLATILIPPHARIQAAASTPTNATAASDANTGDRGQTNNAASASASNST

Compound: CSc1ccc(-n2cnc3ccc(-c4nnc(CCc5cccc(C(F)(F)F)c5)o4)cc32)cc1 [P-3817632]
- IC50 (GSK3β): 0.28 µM
- MIC25 [1]: 0.6 µM (≈ 0.288 µg/mL)
- MIC50 [1]: 2 µM (≈ 0.961 µg/mL)
- MIC25 ΔptpA [2]: 13.8 µM (≈ 6.63 µg/mL)
- MIC50 ΔptpA [2]: > 25 µM

Compound: Cc1nnc(-c2ccc3occ(-c4ccc([S+](C)[O-])c(OC(F)(F)F)c4)c3c2)o1 (stereo not shown) [P-5782442]
- MIC25 [1]: 1.6 µM (≈ 0.676 µg/mL)
- MIC50 [1]: > 25 µM
- MIC25 ΔptpA [2]: > 25 µM
- MIC50 ΔptpA [2]: > 25 µM

Compound: CSc1ccc(-n2cnc3ccc(-c4nnc(CCc5cccc(C#N)c5)o4)cc32)cc1 [P-0717632]
- MIC50 [1]: 0.4 µM (≈ 0.175 µg/mL)
- MIC25 ΔptpA [2]: > 25 µM
- MIC50 ΔptpA [2]: > 25 µM

Compound: Cn1cc(C2=C(c3ccc(Cl)cc3Cl)C(=O)NC2=O)c2ccccc21 [SB216763]
- effect on Mtb infection (Mtb infection): increased Mtb infection

Compound: O=C(NCc1ccccn1)Nc1cc(N2CC(CCc3ccccc3)CC2=O)ccn1 (stereo not shown) [P-4423632]
- activity in disk-diffusion antibiotics susceptibility assay [3]: inactive
- activity against intracellular C. jejuni [4]: active in a dose-dependent manner
- Disk assay susceptibility (Mycobacterium smegmatis): R
- effect on host cell viability (hMDM): no effect on host cell viability
- in-broth MIC50 compared to intracellular activity ([5]; in broth vs intracellular): over 10 fold
- IC50 ([5]; read-out: (M)IC50, Mtb H37Rv in broth): 3.88e-05 M
- IC90 ([5]; read-out: (M)IC90, Mtb H37Rv in broth): 4.33e-05 M
- IC50 (GSK3β): 0.748 µM
- Disk assay susceptibility (Mycobacterium abscessus): R
- Disk assay susceptibility ([6]; up to 25 μg of P-4423632): R
- Disk assay susceptibility ([7]; up to 25 μg of P-4423632): R
- MIC25 [1]: 2.9 µM (≈ 1.2 µg/mL)
- MIC50 [1]: 6.4 µM (≈ 2.66 µg/mL)
- Disk assay susceptibility (Salmonella typhimurium; up to 25 μg of P-4423632): R
- Disk assay susceptibility (M. avium avium; up to 25 μg of P-4423632): R
- IC50 ([8]; H37RV, THP-1, read-out: (M)IC50): 2.31e-06 M
- IC90 ([8]; Mtb H37Rv in THP-1): 16 µM
- Disk assay susceptibility (Bacillus subtilis; up to 25 μg of P-4423632): R
- phosphorylation of GSK3α Y279 and GSK3β Y216 [9]: reduced phosphorylation of both Y279 and Y216
- Disk assay susceptibility (Enterococcus faecalis): R
- Disk assay susceptibility (MRSA): R
- IC50 at 72 h ([10]; read-out: (M)IC50, cytotoxicity in THP1): 7.78e-05 M
- IC90 at 72 h ([10]; read-out: (M)IC90, cytotoxicity in THP1): 0.000115 M
- activity against intracellular S. Typhimurium [11]: active in a dose-dependent manner
- Disk assay susceptibility (Staphylococcus aureus; up to 25 μg of P-4423632): R
- Reduction % of intracellular Mtb survival vs untreated counterpart ([12]; GSK3α KO THP-1 cells): over 75%
- Reduction % of intracellular Mtb survival vs untreated counterpart ([12]; GSK3β KO THP-1 cells): ~50%
- Apoptotic cells (THP-1 cells): 16.31% and 30.57% and 31.59%
- Dead cells (THP-1 cells): 9.32% and 6.98%
- Live cells (THP-1 cells): 67.62% and 58.79% and 58.44%
- effect on apoptosis of infected THP-1 cells (THP-1 cells): upregulation of apoptosis
- Disk assay susceptibility (Acinetobacter baumannii; up to 25 μg of P-4423632): R
- Disk assay susceptibility (Moraxella catarrhalis; up to 25 μg of P-4423632): R
- MIC25 ΔptpA [2]: > 25 µM
- MIC50 ΔptpA [2]: > 25 µM
- Disk assay susceptibility (Pseudomonas aeruginosa; up to 25 μg of P-4423632): R
- Disk assay susceptibility [13]: R
- Disk assay susceptibility (Mycobacterium bovis BCG; up to 25 μg of P-4423632): R
- IC50 ([14]; Mycobacterium tuberculosis, Macrophage, Mtb H37Rv in hMDM): 4.17 µM
- effect on Mtb intracellular replication in hMDMs ([14]; hMDMs combined from two donors, 72 h): restricted Mtb intracellular replication in a dose dependent manner
- Disk assay susceptibility (Mycobacterium marinum): R
- dose-dependent activity against intracellular Mtb [15]: dose-dependent activity
- Disk assay susceptibility (Escherichia coli; up to 25 μg of P-4423632): R

Compound: Gentamycin [reference compound]
- Control (mm), disk assay clearing ([6]; Gen 12.5 μg): 20 mm
- Control (mm), disk assay clearing ([7]; Gen 10 μg): 26 mm
- Control (mm), disk assay clearing (Salmonella typhimurium; Gen 10 μg): 20 mm
- Control (mm), disk assay clearing (M. avium avium; Gen 12.5 μg): 21 mm
- Control (mm), disk assay clearing (Bacillus subtilis; Gen 10 μg): 24 mm
- Control (mm), disk assay clearing (Staphylococcus aureus; Gen 10 μg): 25 mm
- Control (mm), disk assay clearing (Acinetobacter baumannii; Gen 10 μg): 20 mm
- Control (mm), disk assay clearing (Moraxella catarrhalis; Gen 10 μg): 30 mm
- Control (mm), disk assay clearing (Pseudomonas aeruginosa; Gen 10 μg): 21 mm
- Control (mm), disk assay clearing (Mycobacterium bovis BCG; Gen 10 μg): 30 mm
- Control (mm), disk assay clearing (Escherichia coli; Gen 10 μg): 18 mm
